Where “and” joins values, the source holds several entries; their conditions need not be identical. Identical values can stand only once. Like-named read-outs stand apart in the source and are kept apart here.
Key:
[1] = system: L929 fibroblasts; assay: Mammalian cell cytotoxicity screening, resazurin viability; type: cell-based, mouse
[2] = system: Lepidium sativum L. seeds; conditions: 24 h incubation, mean(±SD), n = 3
[3] = system: Lepidium sativum L. roots; conditions: 24 h incubation, mean(±SD), n = 3
[4] = 0.01% (w/w) compound in the medium
[5] = 0.03% (w/w) compound in the medium
[6] = 0.05% (w/w) compound in the medium
[7] = 0.10% (w/w) compound in the medium
[8] = 0.30% (w/w) compound in the medium
[9] = 0.50% (w/w) compound in the medium
[10] = 1.00% (w/w) compound in the medium
[11] = 2.00% (w/w) compound in the medium
[12] = 4.00% (w/w) compound in the medium
[13] = 5.00% (w/w) compound in the medium
[14] = 3.00% (w/w) compound in the medium

SMILES | Inhibition of the Lepidium sativum seeds germination (ISG, %) [2, 4] | Inhibition of the Lepidium sativum seeds germination (ISG, %) [2, 5] | Inhibition of the Lepidium sativum seeds germination (ISG, %) [2, 6] | Inhibition of the Lepidium sativum seeds germination (ISG, %) [2, 7] | Inhibition of the Lepidium sativum seeds germination (ISG, %) [2, 8] | Inhibition of the Lepidium sativum seeds germination (ISG, %) [2, 9] | Inhibition of the Lepidium sativum seeds germination (ISG, %) [2, 10] | Inhibition of the Lepidium sativum seeds germination (ISG, %) [2, 11] | Inhibition of the Lepidium sativum seeds germination (ISG, %) [2, 12] | Inhibition of the Lepidium sativum seeds germination (ISG, %) [2, 13] | Inhibition of the root growth in pregerminated Lepidium sativum seeds (IRG, %) [3, 4] [%] | Inhibition of the root growth in pregerminated Lepidium sativum seeds (IRG, %) [3, 5] | Inhibition of the root growth in pregerminated Lepidium sativum seeds (IRG, %) [3, 6] | Inhibition of the root growth in pregerminated Lepidium sativum seeds (IRG, %) [3, 7] | Inhibition of the root growth in pregerminated Lepidium sativum seeds (IRG, %) [3, 8] | Inhibition of the root growth in pregerminated Lepidium sativum seeds (IRG, %) [3, 9] | Inhibition of the root growth in pregerminated Lepidium sativum seeds (IRG, %) [3, 10] | Inhibition of the root growth in pregerminated Lepidium sativum seeds (IRG, %) [3, 11] | Inhibition of the root growth in pregerminated Lepidium sativum seeds (IRG, %) [3, 14] | Inhibition of the root growth in pregerminated Lepidium sativum seeds (IRG, %) [3, 12] | other results
N[C@@H](Cc1ccccc1)C(=O)O.OCCN(CCO)CCO [[TEA][Phe]] | 0.0(±0.0) % | 0.0(±0.0) % | 0.9(±0.8) % | 1.8(±0.9) % | 3.5(±1.7) % | 5.3(±0.8) % | 8.8(±1.3) % | 10.5(±0.8) % | 22.8(±2.4) % | 86.0(±2.1) % | 23.6 | 24.4(±2.0) % | 28.5(±2.0) % | 44.2(±1.6) % | 48.1(±1.7) % | 53.1(±1.3) % | 60.2(±1.4) % | 69.6(±1.1) % | 78.3(±0.9) % | 83.5(±0.9) % | ED20 ([1]; 24h exposure): 0.37±0.04%; ED50 ([1]; 24h exposure): 0.72±0.07% and 0.72%; ED80 ([1]; 24h exposure): 1.20±0.19%; ED20 ([1]; 48h exposure): 0.38±0.04%; ED50 ([1]; 48h exposure): 0.63±0.04%; ED80 ([1]; 48h exposure): 0.91±0.14%; Inhibition of the root growth in pregerminated Lepidium sativum seeds (IRG, %) [3, 13]: 92.1(±0.6) %
N[C@@H](Cc1c[nH]c2ccccc12)C(=O)O.OCCN(CCO)CCO [[TEA][Trp]] | 0.0(±0.0) % | 1.9(±0.5) % | 3.7(±1.3) % | 12.0(±0.8) % | 16.7(±2.2) % | 18.5(±1.8) % | 28.7(±1.3) % | 38.9(±1.6) % | 61.1(±1.4) % | 83.3(±0.8) % | 38.1 | 41.1(±1.2) % | 48.8(±1.0) % | 51.9(±1.0) % | 53.3(±0.4) % | 54.7(±1.0) % | 57.6(±0.8) % | 69.0(±0.8) % | 76.0(±0.7) % | 88.8(±0.6) % | Inhibition of the Lepidium sativum seeds germination (ISG, %) [2, 14]: 53.7%; Inhibition of the root growth in pregerminated Lepidium sativum seeds (IRG, %) [3, 13]: 95.0(±0.4) %
CC(C)[C@H](N)C(=O)O.OCCN(CCO)CCO [[TEA][Val]] | 0.0(±0.9) % | 0.0(±1.7) % | 0.0(±1.2) % | 0.0(±1.2) % | 1.9(±0.5) % | 3.8(±1.7) % | 5.7(±0.5) % | 17.0(±0.5) % | 34.0(±1.3) % | 52.8(±1.3) % | 11.6 | 11.9(±3.3) % | 21.7(±2.8) % | 32.7(±2.9) % | 49.1(±2.5) % | 54.8(±2.6) % | 62.9(±2.4) % | 73.3(±1.5) % | 77.6(±1.7) % | 82.0(±1.0) % | Inhibition of the Lepidium sativum seeds germination (ISG, %) [2, 14]: 28.3(±0.5) %; Inhibition of the root growth in pregerminated Lepidium sativum seeds (IRG, %) [3, 13]: 89.9(±0.74) %

— PMC12029836, “Phytotoxicity, Cytotoxicity, and Antimicrobial Activity of Triethanolammonium Amino Acids Salts” (Molecules, 2025)
